From patent US11464749B2, “Bismuth-thiol compositions and methods of use” (Microbion Corporation, priority 2018, dated 2022)
≈ marks a conversion by molar mass, not a printed value. Like-named read-outs stand apart in the source and are kept apart here.

Key:
[1] = system: Staphylococcus aureus (MRSA); experiment: Broth microdilution MIC (Example 11)
Escherichia coli = conditions: E. coli MMX 102 (ATCC 25922); CLSI QC ranges shown in parenthesis; cited from earlier work
S. pyogenes = experiment: Broth microdilution MIC (Example 11); conditions: Streptococcus pyogenes
P. aeruginosa = P. aeruginosa isolate 103; CLSI QC range shown in parenthesis; cited from earlier work
[2] = Phase 1 human clinical studies, topical tolerability; assay type: in vivo; conditions: humans
E. coli ATCC 25922 = conditions: control strain ATCC 25922; per CLSI M100-S24 or provided by Microbion; cited from earlier work
[3] = Particle size of BisEDT microparticles (Nanosizer/Zetasizer); assay type: physicochemical; conditions: resuspended in 2% Pluronic F-68, sonicated
Experimental: The dried particulate matter was characterized to assess the particle size properties. Briefly, microparticles were resuspended in 2% Pluronic® F-68 (BASF, Mt. Olive, N.J.) and the suspension was sonicated for 10 minutes in a water bath sonicator at standard setting prior to analysis using a Nanosizer/Zetasizer Nano-S particle analyzer (model ZEN1600 (without zeta-potential measuring capacity), Malvern Instruments, Worcestershire, UK) according to the manufacturer's recommendations.

A. fumigatus = experiment: Broth microdilution antifungal susceptibility (Example 13); assay type: cell-based; conditions: for MIC: Aspergillus fumigatus
Candida krusei = experiment: as above; assay type: cell-based; conditions: Pichia kudriavzevii
C. parapsilosis = experiment: Broth microdilution MIC, yeast (Example 11); assay type: cell-based
S. aureus ATCC 29213 = experiment: Broth microdilution MIC, ATCC QC organism (Example 12); conditions: Staphylococcus aureus, ATCC29213
A. flavus = experiment: Broth microdilution antifungal susceptibility (Example 13); assay type: cell-based; conditions: Aspergillus flavus
Candida albicans = experiment: as above; assay type: cell-based; conditions: Candida albicans
A. terreus = experiment: as above; assay type: cell-based; conditions: Aspergillus terreus, A. terreus MMX 8229
S. maltophilia = experiment: MIC against CF bacterial strains (Example 5); conditions: Stenotrophomonas maltophilia
M. abscessus complex = experiment: MIC against CF bacterial strains (Example 5); assay type: cell-based, Mycobacterium abscessus; conditions: Mycobacteroides abscessus
Experimental: A range of CF-isolated strains of Mycobacterium avium and Mycobacterium abscessus were included; which allows for understanding of the activity against non-tubercular Mycobacteria (NTM). Two distinct bismuth-thiol compounds were evaluated, including BisEDT and BisBDT. […] The CF-isolates of greater clinical relevance, including both M abscessus spp. and Burkholderia spp., were both consistently found to be much more susceptible to BisEDT and BisBDT.

[4] = S. pyogenes MMX 3820, ERY^R CLI^R
[5] = S. pyogenes MMX 3929, ERY^R CC^R
[6] = S. pyogenes MMX 5091, ERY^R CC^R

C[C@@H](O)[C@H]1C(=O)N2C(C(=O)O)=C(S[C@@H]3CN[C@H](C(=O)N(C)C)C3)[C@H](C)[C@H]12 [Meropenem, reference compound]
MIC ([1]; ATCC29213|MRSA|MSSA, S. aureus MMX 101 (ATCC 29213), QC, MSSA): 0.06 µg/mL (≈ 0.156 µM) | MIC ([1]; MRSA, S. aureus MMX 5373, MRSA Lev^R Cip^R CC^R Ery^R Ox^R): 32 µg/mL (≈ 83.4 µM) | MIC ([1]; MRSA, S. aureus MMX 6311, MRSA Lev^R Cip^R CC^R Ery^R Ox^R): 8 µg/mL (≈ 20.9 µM) | MIC ([1]; MRSA, S. aureus MMX 9203, MRSA Lev^R Cip^R Ery^R Ox^R): 4 µg/mL (≈ 10.4 µM) | MIC ([1]; MRSA, S. aureus MMX 9204, MRSA Lev^R Cip^R Ery^R Ox^R): 4 µg/mL (≈ 10.4 µM) | MIC ([1]; MRSA, S. aureus MMX 9205, MRSA Lev^R Cip^R CC^R Ery^R Ox^R): 64 µg/mL (≈ 167 µM) | CLSI QC range of MIC (Escherichia coli): (0.008-0.06) μg/mL | MIC (S. pyogenes; S. pyogenes MMX 3068, Ery^R): ≤ 0.008 µg/mL | MIC (S. pyogenes; [4]): ≤ 0.008 µg/mL | MIC (S. pyogenes; S. pyogenes MMX 3919, ERY^R): ≤ 0.008 µg/mL | MIC (S. pyogenes; [5]): ≤ 0.008 µg/mL | MIC (S. pyogenes; [6]): ≤ 0.008 µg/mL

C1C[S][Bi]([S]CC[S][Bi]2[S]CC[S]2)[S]1 [BisEDT, bismuth-1,2-ethanedithiol]
MIC, CLSI QC range (P. aeruginosa): (0.5-4) μg/mL | concentration well-tolerated when administered topically ([2]; 6 hours): up to 2500 μg/cm^2 | concentration tolerated when administered topically ([2]; over 21 days continuous exposure, normal and abraded skin): up to 75 μg/cm^2 | Expected MIC: goal (acceptable range) (E. coli ATCC 25922): 1 (0.5-2) mcg/mL | peak volumetric mean diameter (VMD) of microparticles [3]: about 1.3 microns

CC(S)C(C)S.[Bi] (centres unmarked) [BisBDT, bismuth-2,3-butanedithiol]
MIC ([1]; ATCC29213 / MRSA / MSSA): ≤ 0.06 µg/mL | MIC ([1]; MRSA): ≤ 0.06 µg/mL | MIC ([1]; MRSA, read-out: MIC values): < 0.06 µg/mL | MIC0 24 hr (A. fumigatus; A. fumigatus ATCC MYA-3626, 24 hr): 2 µg/mL | MIC0 24 hr (A. fumigatus; A. fumigatus MMX 5934, 24 hr): 2 µg/mL | MEC at 48 hr (MIC0 not observed) (A. fumigatus; A. fumigatus MMX 5934, 48 hr): 4 µg/mL | MIC (A. fumigatus; ATCC204305, A. fumigatus ATCC 204305, 24 hr, read-out: MIC0 24 hr): 8 µg/mL | MIC (A. fumigatus; ATCC204305, A. fumigatus ATCC 204305, 48 hr, read-out: MEC at 48 hr (MIC0 not observed)): 4 µg/mL | MIC (A. fumigatus; A. fumigatus ATCC MYA-3626, 48 hr, read-out: MIC0 48 hr): 4 µg/mL | MIC (A. fumigatus; A. fumigatus MMX 5939, 24 hr, read-out: MIC0 24 hr): 2 µg/mL | MIC (A. fumigatus; A. fumigatus MMX 5939, 48 hr, read-out: MEC at 48 hr (MIC0 not observed)): 4 µg/mL | MIC (A. fumigatus; read-out: MIC0 48 hr): 1 µg/mL | MIC (Candida krusei; ATCC6258, read-out: MIC0 (complete inhibition)): 1 µg/mL | MIC (Candida krusei; ATCC14243, read-out: MIC0 (complete inhibition)): 1 µg/mL | MIC (Candida krusei; ATCC96685, read-out: MIC2 (50% inhibition)): 0.25 µg/mL | MIC (Candida krusei; read-out: MIC2 (50% inhibition)): 1 µg/mL | MIC (Candida krusei; read-out: MIC0 (complete inhibition)): 2 µg/mL | MIC (C. parapsilosis; C. parapsilosis MMX 7555, FLU^R, 24 hr): 0.25 µg/mL | MIC (C. parapsilosis; C. parapsilosis MMX 7555, FLU^R, 48 hr): 0.5 µg/mL | MIC (C. parapsilosis; Lodderomyces parapsilosis, 24 h): 0.25 µg/mL | MIC (C. parapsilosis; Lodderomyces parapsilosis, 48 h): 0.5 µg/mL | MIC (C. parapsilosis; Lodderomyces parapsilosis, ATCC22019, 24 h): 0.5 µg/mL | MIC (C. parapsilosis; Lodderomyces parapsilosis, ATCC22019, 48 h): 1 µg/mL | MIC (S. aureus ATCC 29213): 0.12 µg/mL | MIC (A. flavus; ATCC22546, A. flavus ATCC 22546, 24 hr, read-out: MIC0 24 hr): 1 µg/mL | MIC (A. flavus; ATCC22546, A. flavus ATCC 22546, 48 hr, read-out: MIC0 48 hr): 2 µg/mL | MIC (A. flavus; ATCC204304, A. flavus ATCC 204304, 24 hr, read-out: MIC0 24 hr): 4 µg/mL | MIC (A. flavus; ATCC204304, A. flavus ATCC 204304, 48 hr, read-out: MEC at 48 hr (MIC0 not observed)): 4 µg/mL | MIC (A. flavus; A. flavus MMX 7935, 24 hr, read-out: MIC0 24 hr): 8 µg/mL | MIC (A. flavus; A. flavus MMX 7935, 48 hr, read-out: MIC0 48 hr): 8 µg/mL | MIC (Candida albicans; 24 h, read-out: MIC0 (complete inhibition), isolate MMX 7053 (Susceptible), 24 hr): 1 µg/mL | MIC (Candida albicans; 24 h, read-out: MIC0 (complete inhibition), isolate MMX 7067 (FLU-R, VORI-R), 24 hr): 1 µg/mL | MIC (Candida albicans; 24 h, read-out: MIC0 (complete inhibition), isolate MMX 7430 (Susceptible), 24 hr): 0.5 µg/mL | MIC (Candida albicans; 24 h, read-out: MIC0 (complete inhibition), isolate MMX 7437 (FLU-I), 24 hr): 2 µg/mL | MIC (Candida albicans; 24 h, read-out: MIC0 (complete inhibition), isolate MMX 7445 (FLU-R, VORI-R), 24 hr): 2 µg/mL | MIC (Candida albicans; 24 h, read-out: MIC2 (50% inhibition)): 1 µg/mL | MIC (Candida albicans; 24 h, read-out: MIC2 (50% inhibition), isolate ATCC MYA-2732 (FLU-R, VORI-I), 24 hr): 1 µg/mL | MIC (Candida albicans; 24 h, read-out: MIC2 (50% inhibition), isolate MMX 7053 (Susceptible), 24 hr): 0.5 µg/mL | MIC (Candida albicans; 24 h, read-out: MIC2 (50% inhibition), isolate MMX 7067 (FLU-R, VORI-R), 24 hr): 0.5 µg/mL | MIC (Candida albicans; 24 h, read-out: MIC2 (50% inhibition), isolate MMX 7403 (Susceptible), 24 hr): 0.25 µg/mL | MIC (Candida albicans; 24 h, read-out: MIC2 (50% inhibition), isolate MMX 7424 (CASP-R, MICA-R), 24 hr): 1 µg/mL | MIC (Candida albicans; 24 h, read-out: MIC2 (50% inhibition), isolate MMX 7430 (Susceptible), 24 hr): 0.25 µg/mL | MIC (Candida albicans; 24 h, read-out: MIC2 (50% inhibition), isolate MMX 7445 (FLU-R, VORI-R), 24 hr): 1 µg/mL | MIC (Candida albicans; 24 h, read-out: MIC0 (complete inhibition)): 2 µg/mL | MIC (Candida albicans; ATCC90028, 24 h, read-out: MIC0 (complete inhibition), isolate ATCC 90028 (Susceptible), 24 hr): 2 µg/mL | MIC (Candida albicans; ATCC90028, 24 h, read-out: MIC2 (50% inhibition), isolate ATCC 90028 (Susceptible), 24 hr): 0.5 µg/mL | MIC (Candida albicans; ATCC204276, 24 h, read-out: MIC0 (complete inhibition), isolate ATCC 204276 (MICA-R), 24 hr): 1 µg/mL | MIC (Candida albicans; ATCC204276, read-out: MIC2 (50% inhibition), isolate ATCC 204276 (MICA-R), result after 48 hr incubation (insufficient growth at 24 hr)): 1 µg/mL | MIC (A. terreus; 24 hr, read-out: MIC0 24 hr): 0.25 µg/mL | MIC (A. terreus; 48 hr, read-out: MIC0 48 hr): 1 µg/mL | MIC (S. maltophilia): 0.13 µg/mL | MIC (M. abscessus complex; AMT0068-40, M abscessus/massiliense complex, read-out: MIC): 0.06 µg/mL | MIC (M. abscessus complex; AMT 0068-40, MABSC CF isolate, macrolide-S, amikacin-I): 0.125 µg/mL | MIC (M. abscessus complex; AMT 0089-5, MABSC CF isolate, macrolide-R, amikacin-R): 0.125 µg/mL | MIC (M. abscessus complex; AMT0119-7, M abscessus/massiliense complex, read-out: MIC): < 0.03 µg/mL | MIC (M. abscessus complex; AMT 0119-7, MABSC CF isolate, macrolide-S, amikacin-I): 0.125 µg/mL | MIC (M. abscessus complex; AMT0130-8, M abscessus/massiliense complex, read-out: MIC): < 0.03 µg/mL | MIC (M. abscessus complex; AMT 0130-8, MABSC CF isolate, macrolide-S, amikacin-I, read-out: MIC): 0.0625 µg/mL | MIC (M. abscessus complex; AMT 0136-10, MABSC CF isolate, macrolide-R, amikacin-R, read-out: MIC): 0.0625 µg/mL | MIC (M. abscessus complex; AMT153-9, M abscessus/massiliense complex, read-out: MIC): < 0.03 µg/mL | MIC (M. abscessus complex; AMT 0153-9, MABSC CF isolate, macrolide-S, amikacin-I): 0.125 µg/mL | MIC (M. abscessus complex; AMT 0157-14, MABSC CF isolate, macrolide-R, amikacin-I): 0.125 µg/mL | MIC (M. abscessus complex; AMT 0166-29, MABSC CF isolate, macrolide-R, amikacin-R): 0.125 µg/mL | MIC (M. abscessus complex; AMT0493-2, M abscessus/massiliense complex, Amikacin resistant, read-out: MIC): 0.125 µg/mL | MIC (M. abscessus complex; AMT 0493-2, MABSC CF isolate, macrolide-S, amikacin-R): 0.5 µg/mL | MIC (M. abscessus complex; ATCC19977, ATCC 19977, M abscessus/massiliense complex, Macrolide resistant (inducible), read-out: MIC): < 0.03 µg/mL | MIC (M. abscessus complex; ATCC19977, ATCC 19977, M. abscessus abscessus, ATCC type strain, read-out: MIC): 0.25 µg/mL | MIC (S. pyogenes; S. pyogenes MMX 3068, Ery^R): 0.12 µg/mL | MIC (S. pyogenes; [4]): 0.5 µg/mL | MIC (S. pyogenes; S. pyogenes MMX 3919, ERY^R): 0.03 µg/mL | MIC (S. pyogenes; [5]): 0.5 µg/mL | MIC (S. pyogenes; [6]): 1 µg/mL
